Values joined by “and” are separate entries in the source; they are usually repeats but may differ in a detail not shown here. Equal values may be shown once.
Legend:
[1] = Preliminary oral pharmacokinetics in monkeys; type: in vivo
Procedure: Formulations using polyethylene glycol 300 (PEG300) generally produced higher exposures than microemulsions prepared in Tween 80 diluted in deionized water. […] Importantly, in dogs the exposure in the male 30 mg/kg PEG300 oral dose group exceeded the exposure necessary to produce the maximal effect on prostate reduction in the rat model of LH suppression.

rats = assay: Single and repeated oral administration toxicity in rats; type: in vivo
Text: Compound IV was well-tolerated by rats and dogs after single and repeated oral administration (up to 28 days).

[2] = test system: circulating androgen (primarily testosterone and dihydrotestosterone); assay: Suppression and recovery of androgen levels in intact male monkeys; type: in vivo, Cynomolgus monkeys; parameters: circulating androgen levels: unit not given here
Procedure: The effect of Compound IV on suppression and recovery of testosterone levels in intact male monkeys was evaluated in conjunction with an oral pharmacokinetic study. Three treatment naïve male Cynomolgus monkeys (2 to 3 years old) were administered Compound IV at 30 mg/kg daily by oral gavage for 7 consecutive days. Blood samples were collected and divided into serum and plasma for testosterone and Compound IV quantitative measurements, respectively.

[3] = test system: LH, FSH, testosterone and androgen-dependent organ weights; assay: Suppression of LH and testosterone hormone levels in intact and ORX rats; type: in vivo, Sprague-Dawley rats; settings: for Testosterone levels: LLOQ 0.08 ng/mL
androgen receptor (AR) = androgen receptor (AR) (Rattus norvegicus (Rat), UniProt P15207); assay: Cross-reactivity transcriptional activation assay, AR; type: cell-based; settings: agonist and antagonist modes
Sequence of androgen receptor (AR) (P15207 whole entry S389L, canonical isoform): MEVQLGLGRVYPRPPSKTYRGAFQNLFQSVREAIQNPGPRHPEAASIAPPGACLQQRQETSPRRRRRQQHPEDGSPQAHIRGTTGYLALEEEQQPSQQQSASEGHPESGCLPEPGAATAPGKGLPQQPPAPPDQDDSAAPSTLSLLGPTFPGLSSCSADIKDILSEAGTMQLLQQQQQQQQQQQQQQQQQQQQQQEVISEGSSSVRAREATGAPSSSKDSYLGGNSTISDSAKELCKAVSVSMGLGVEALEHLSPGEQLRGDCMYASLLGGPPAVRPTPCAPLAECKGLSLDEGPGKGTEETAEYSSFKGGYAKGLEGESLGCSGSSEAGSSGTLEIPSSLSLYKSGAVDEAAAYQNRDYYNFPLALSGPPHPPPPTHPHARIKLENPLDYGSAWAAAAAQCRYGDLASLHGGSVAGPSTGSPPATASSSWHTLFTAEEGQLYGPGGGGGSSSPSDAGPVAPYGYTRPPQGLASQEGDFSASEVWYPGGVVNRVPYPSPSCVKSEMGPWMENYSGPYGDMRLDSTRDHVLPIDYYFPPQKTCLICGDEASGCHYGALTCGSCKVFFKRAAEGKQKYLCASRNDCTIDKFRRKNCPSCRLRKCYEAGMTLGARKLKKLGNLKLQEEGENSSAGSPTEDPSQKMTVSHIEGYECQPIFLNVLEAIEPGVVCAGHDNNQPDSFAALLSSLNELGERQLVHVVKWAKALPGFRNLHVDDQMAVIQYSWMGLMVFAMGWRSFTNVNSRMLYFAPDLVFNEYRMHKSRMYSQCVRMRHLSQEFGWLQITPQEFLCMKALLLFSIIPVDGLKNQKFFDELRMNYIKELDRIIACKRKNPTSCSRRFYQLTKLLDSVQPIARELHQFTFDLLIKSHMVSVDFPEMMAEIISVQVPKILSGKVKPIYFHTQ
Text: (§1) Compound IV was screened for cross-reactivity against rat isoforms of glucocorticoid receptor (GR), mineralocorticoids receptor (MR), progesterone receptor (PR), androgen receptor (AR) and human isoforms of farnesoid X receptor (FXR), liver X receptor (LXR), peroxisome proliferator-activated receptors (PPAR-α and PPAR-γ), and retinoid X receptor (RXR-α) in both agonist and antagonist modes in transcriptional activation assays.

[4] = biological target: mineralocorticoids receptor (MR) (Rattus norvegicus (Rat), UniProt P22199); assay: Cross-reactivity transcriptional activation assay, MR; type: cell-based; settings: agonist and antagonist modes
Sequence of mineralocorticoids receptor (MR) (P22199 whole entry): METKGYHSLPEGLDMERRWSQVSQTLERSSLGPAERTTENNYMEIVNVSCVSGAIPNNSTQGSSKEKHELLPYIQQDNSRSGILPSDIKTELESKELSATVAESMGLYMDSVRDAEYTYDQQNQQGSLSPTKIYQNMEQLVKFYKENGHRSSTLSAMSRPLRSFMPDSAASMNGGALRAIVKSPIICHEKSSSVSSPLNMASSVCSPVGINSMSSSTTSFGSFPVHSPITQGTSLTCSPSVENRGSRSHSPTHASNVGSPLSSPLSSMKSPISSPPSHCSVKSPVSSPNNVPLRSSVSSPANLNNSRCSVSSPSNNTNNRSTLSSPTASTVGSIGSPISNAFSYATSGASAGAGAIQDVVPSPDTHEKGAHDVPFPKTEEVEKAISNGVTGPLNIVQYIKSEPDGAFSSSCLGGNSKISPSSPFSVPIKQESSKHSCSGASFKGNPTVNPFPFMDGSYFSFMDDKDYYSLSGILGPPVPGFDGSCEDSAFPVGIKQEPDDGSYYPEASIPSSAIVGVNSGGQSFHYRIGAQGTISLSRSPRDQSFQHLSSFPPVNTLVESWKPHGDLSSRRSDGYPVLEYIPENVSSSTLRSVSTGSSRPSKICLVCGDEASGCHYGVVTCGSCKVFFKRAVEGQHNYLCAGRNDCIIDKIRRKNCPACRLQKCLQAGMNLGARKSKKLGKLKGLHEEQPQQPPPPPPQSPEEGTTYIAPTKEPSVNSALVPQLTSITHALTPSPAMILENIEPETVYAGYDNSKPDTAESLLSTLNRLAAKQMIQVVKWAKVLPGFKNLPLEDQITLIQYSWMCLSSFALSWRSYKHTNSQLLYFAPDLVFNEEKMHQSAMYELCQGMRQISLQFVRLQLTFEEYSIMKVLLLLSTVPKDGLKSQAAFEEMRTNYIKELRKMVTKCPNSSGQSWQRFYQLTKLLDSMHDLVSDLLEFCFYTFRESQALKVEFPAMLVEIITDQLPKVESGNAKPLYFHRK
Text: as §1

rat ER-β = rat ER-β (Rattus norvegicus (Rat), UniProt Q62986); assay: ER-β transactivation assay (ERE-LUC) in HEK-293 cells; type: cell-based
Sequence of rat ER-β (Q62986 whole entry): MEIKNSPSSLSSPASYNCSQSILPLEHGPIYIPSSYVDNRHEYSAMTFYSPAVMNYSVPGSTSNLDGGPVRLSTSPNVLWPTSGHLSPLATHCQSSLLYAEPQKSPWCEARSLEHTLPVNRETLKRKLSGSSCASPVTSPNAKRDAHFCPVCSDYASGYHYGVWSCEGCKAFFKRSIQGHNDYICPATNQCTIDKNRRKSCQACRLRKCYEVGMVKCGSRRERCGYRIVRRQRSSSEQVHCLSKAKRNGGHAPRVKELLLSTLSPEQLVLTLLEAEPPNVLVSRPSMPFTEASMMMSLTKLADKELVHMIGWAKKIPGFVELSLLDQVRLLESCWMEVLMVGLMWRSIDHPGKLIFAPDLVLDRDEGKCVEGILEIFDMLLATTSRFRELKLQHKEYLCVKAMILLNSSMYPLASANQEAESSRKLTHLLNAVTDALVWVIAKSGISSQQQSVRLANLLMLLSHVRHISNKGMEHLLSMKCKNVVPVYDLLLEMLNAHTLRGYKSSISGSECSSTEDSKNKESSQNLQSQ
Procedure: (§2) Transactivation assays in agonist and antagonist modes were performed to identify whether the compound is an agonist, antagonist or a partial.
(§3) Sequencing was performed to determine the absence of any mutations. HEK-293 cells were plated at 100,000 cells per well of a 24 well plate in Dulbecco's Minimal Essential Media (DMEM) +5% charcoal-stripped fetal bovine serum (csFBS). […] Luciferase assays were performed 48 hrs after transfection.

CYP1A2 = assay: CYP450 induction in vitro, CYP1A2; type: in vitro ADME
[5] = biological target: ER-α ligand binding domain (LBD) (Homo sapiens (Human), UniProt P03372); assay: ER-α competitive radioligand binding assay with [3H]E2; settings: read-out: ER-α Ki
Sequence of ER-α ligand binding domain (LBD) (P03372 whole entry, looked up, species assumed, the tested form may be a part): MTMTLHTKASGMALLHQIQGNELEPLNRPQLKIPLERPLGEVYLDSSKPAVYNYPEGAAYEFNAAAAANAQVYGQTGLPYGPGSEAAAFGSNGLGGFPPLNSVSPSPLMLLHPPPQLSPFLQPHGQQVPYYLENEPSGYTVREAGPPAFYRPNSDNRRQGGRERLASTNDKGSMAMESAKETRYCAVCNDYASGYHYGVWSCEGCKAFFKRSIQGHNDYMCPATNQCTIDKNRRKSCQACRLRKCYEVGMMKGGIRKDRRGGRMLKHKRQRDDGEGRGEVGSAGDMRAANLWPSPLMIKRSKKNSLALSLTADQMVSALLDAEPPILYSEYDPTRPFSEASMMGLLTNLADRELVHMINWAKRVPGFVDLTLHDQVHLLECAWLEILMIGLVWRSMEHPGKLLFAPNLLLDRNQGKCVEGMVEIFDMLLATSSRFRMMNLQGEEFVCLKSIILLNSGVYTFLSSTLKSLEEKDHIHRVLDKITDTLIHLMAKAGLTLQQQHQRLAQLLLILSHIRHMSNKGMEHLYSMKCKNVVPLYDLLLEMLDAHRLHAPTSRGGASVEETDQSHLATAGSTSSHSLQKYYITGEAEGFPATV
Procedure: Following incubation, plates were harvested with GF/B filters on the Unifilter-96 Harvester (PerkinElmer) and washed three times with ice-cold buffer B (50 mM Tris, pH 7.2). The filter plates were dried at room temperature, then 35 μl Microscint-O cocktail was added to each well and the filter plates were sealed with TopSeal-A. Radioactivity was counted in a TopCount® NXT Microplate Scintillation Counter using the settings for ^3H in Microscint cocktail (PerkinElmer).
E2 (determined by incubating with 10^−6 M unlabeled E2) and expressing it as a percentage of the specific binding in the absence of test compound.

[6] = test system: human peripheral blood lymphocytes; assay: Chromosomal aberrations in human peripheral blood lymphocytes in vitro; type: cell-based; settings: concentrations up to 200 μM
rat ER-α = rat ER-α (Rattus norvegicus (Rat), UniProt P06211); assay: cell-based
Sequence of rat ER-α (P06211 whole entry): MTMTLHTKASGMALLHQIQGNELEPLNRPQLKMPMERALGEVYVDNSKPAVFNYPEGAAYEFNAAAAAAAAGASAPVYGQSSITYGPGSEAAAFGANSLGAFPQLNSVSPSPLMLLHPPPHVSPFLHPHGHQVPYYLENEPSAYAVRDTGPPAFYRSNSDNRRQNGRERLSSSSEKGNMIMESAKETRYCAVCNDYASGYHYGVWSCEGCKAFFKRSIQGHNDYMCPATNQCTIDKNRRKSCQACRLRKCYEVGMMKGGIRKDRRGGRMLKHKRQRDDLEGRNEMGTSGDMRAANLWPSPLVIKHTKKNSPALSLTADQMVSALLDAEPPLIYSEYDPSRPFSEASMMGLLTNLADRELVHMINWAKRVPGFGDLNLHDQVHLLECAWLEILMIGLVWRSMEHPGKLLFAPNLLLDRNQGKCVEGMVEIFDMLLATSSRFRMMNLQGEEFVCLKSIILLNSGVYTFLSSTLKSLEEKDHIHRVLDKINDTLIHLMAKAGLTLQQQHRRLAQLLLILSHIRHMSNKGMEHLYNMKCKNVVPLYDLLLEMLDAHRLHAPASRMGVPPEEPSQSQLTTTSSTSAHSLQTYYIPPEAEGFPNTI
Procedure: as §2
as §3, with “(csFBS). The cells were transfected using Lipofectamine (Invitrogen, Carlsbad, Calif.) with 0.25 μg ERE-LUC, 0.02 μg CMV-LUC (renilla luciferase) and 12.5 ng of rat ER-α or 25 ng rat ER-β.” for “(csFBS).”

[7] = Intact, 0.3 mg/kg per day s.c., 14 days
[8] = Intact, 1 mg/kg per day s.c., 14 days
[9] = Intact, 3 mg/kg per day s.c., 14 days
[10] = Intact, 10 mg/kg per day s.c., 14 days
[11] = Intact, 30 mg/kg per day s.c., 14 days
[12] = ORX, 0.3 mg/kg per day s.c., 14 days
[13] = ORX, 1 mg/kg per day s.c., 14 days
[14] = ORX, 3 mg/kg per day s.c., 14 days
[15] = ORX, 10 mg/kg per day s.c., 14 days
[16] = ORX, 30 mg/kg per day s.c., 14 days
[17] = estradiol 1 nM, concentrations up to 10 μM

Q: Which results are given for `O=C(c1ccc(O)c(F)c1)N(c1ccc(O)cc1)c1ccc(F)cc1` [Compound IV, 3-fluoro-N-(4-fluorophenyl)-4-hydroxy-N-(4-hydroxyphenyl)benzamide]?
A: absorption following oral dosing [1]: rapidly absorbed; oral bioavailability ([1]; preliminary): approximates or exceeds that in dogs; tolerability (rats; single and repeated oral administration (up to 28 days)): well-tolerated; pathologic changes in kidney, liver, heart and other non-target-related organs (rats; up to 28 days oral): no pathologic changes observed; decrease of circulating androgen levels compared to baseline ([2]; 30 mg/kg daily oral gavage for 7 days): up to 47%; circulating androgen levels ([2]; Day 2, 30 mg/kg daily oral gavage, mean±SEM): 997±104; circulating androgen levels ([2]; Day 6, 30 mg/kg daily oral gavage, mean±SEM): 852±136; circulating androgen levels ([2]; after 18-day drug-free recovery period): 1757.7±369.5; FSH [3, 7]: 17.3±6.4 ng/mL and 17.3^b ng/mL; LH [3, 7]: 0.863±0.384 ng/mL and 0.863^b ng/mL; Levator Ani Muscle weight [3, 7]: 86.9±10.0 % of Intact and 86.9^a,b % of Intact; Prostate weight [3, 7]: 84.0±19.2 % of Intact and 84.0^b % of Intact; Seminal Vesicles weight [3, 7]: 76.2±7.8 % of Intact and 76.2^a,b % of Intact; Testosterone levels [3, 7]: 2.6 ± 1.7 ng/mL; FSH [3, 8]: 15.7±7.3 ng/mL and 15.7^b ng/mL; LH [3, 8]: 0.704±0.530 ng/mL and 0.704^b ng/mL; Levator Ani Muscle weight [3, 8]: 82.1±12.1 % of Intact and 82.1^a,b % of Intact; Prostate weight [3, 8]: 75.2±20.7 % of Intact and 75.2^b % of Intact; Seminal Vesicles weight [3, 8]: 66.3±27.2 % of Intact and 66.3^a,b % of Intact; Testosterone levels [3, 8]: 1.6 ± 1.0 ng/mL; FSH [3, 9]: 18.4±7.7 ng/mL and 18.4^b ng/mL; LH [3, 9]: 0.395±0.302 ng/mL and 0.395^a,b ng/mL; Levator Ani Muscle weight [3, 9]: 65.2±4.4 % of Intact and 65.2^a % of Intact; Prostate weight [3, 9]: 68.2±8.1 % of Intact and 68.2^a,b % of Intact; Seminal Vesicles weight [3, 9]: 51.8±28.5 % of Intact and 51.8^a,b % of Intact; Testosterone levels [3, 9]: 0.7 ± 0.4 ng/mL; FSH [3, 10]: 9.2±4.0 ng/mL and 9.25^a,b ng/mL; LH [3, 10]: 0.226±0.165 ng/mL and 0.226^a,b ng/mL; Levator Ani Muscle weight [3, 10]: 57.8±11.2 % of Intact and 57.8^a % of Intact; Prostate weight [3, 10]: 45.1±20.0 % of Intact and 45.1^a,b % of Intact; Seminal Vesicles weight [3, 10]: 19.1±7.0 % of Intact and 19.1^a % of Intact; Testosterone levels [3, 10]: BLOQ; FSH [3, 11]: 6.3±1.8 ng/mL and 6.25^a,b ng/mL; LH [3, 11]: 0.236±0.176 ng/mL and 0.236^a,b ng/mL; Levator Ani Muscle weight [3, 11]: 58.1±4.7 % of Intact and 58.1^a % of Intact; Prostate weight [3, 11]: 43.6±8.8 % of Intact and 43.6^a,b % of Intact; Seminal Vesicles weight [3, 11]: 17.9±3.3 % of Intact and 17.9^a % of Intact; Testosterone levels [3, 11]: BLOQ; FSH [3, 12]: 115±17 ng/mL and 116^a ng/mL; LH [3, 12]: 15.4±2.9 ng/mL and 15.4^a ng/mL; Levator Ani Muscle weight [3, 12]: 54.5±6.6 % of Intact and 54.5^a % of Intact; Prostate weight [3, 12]: 19.0±4.2 % of Intact and 19.0^a,b % of Intact; Seminal Vesicles weight [3, 12]: 12.2±1.3 % of Intact and 12.2^a % of Intact; FSH [3, 13]: 114±22 ng/mL and 114^a ng/mL; LH [3, 13]: 13.5±2.2 ng/mL and 13.5^a ng/mL; Levator Ani Muscle weight [3, 13]: 49.6±7.0 % of Intact and 49.6^a % of Intact; Prostate weight [3, 13]: 17.4±3.4 % of Intact and 17.4^a % of Intact; Seminal Vesicles weight [3, 13]: 16.6±5.4 % of Intact and 16.6^a % of Intact; FSH [3, 14]: 65.2±31.9 ng/mL and 65.2^a ng/mL; LH [3, 14]: 6.5 ± 5.6 ng/mL and 6.5 ng/mL; Levator Ani Muscle weight [3, 14]: 53.6±10.0 % of Intact and 53.6^a % of Intact; Prostate weight [3, 14]: 19.6±6.7 % of Intact and 19.6^a % of Intact; Seminal Vesicles weight [3, 14]: 16.5±4.8 % of Intact and 16.5^a % of Intact; FSH [3, 15]: 27.6±8.2 ng/mL and 27.6^b ng/mL; LH [3, 15]: 0.425±0.135 ng/mL and 0.425^a,b ng/mL; Levator Ani Muscle weight [3, 15]: 51.1±4.9 % of Intact and 51.1^a % of Intact; Prostate weight [3, 15]: 22.9±5.4 % of Intact and 22.9^a,b % of Intact; Seminal Vesicles weight [3, 15]: 13.3±1.9 % of Intact and 13.3^a % of Intact; FSH [3, 16]: 15.1±4.1 ng/mL and 15.1^b ng/mL; LH [3, 16]: 0.368±0.119 ng/mL and 0.368^a,b ng/mL; Levator Ani Muscle weight [3, 16]: 49.2±4.2 % of Intact and 49.2^a,b % of Intact; Prostate weight [3, 16]: 20.6±2.1 % of Intact and 20.6^a,b % of Intact; Seminal Vesicles weight [3, 16]: 12.9±2.1 % of Intact and 12.9^a % of Intact; Testosterone levels ([3]; ORX, all treated groups (0.3-30 mg/kg per day)): BLOQ; doses that significantly suppressed LH levels ([3]; intact and ORX animals, vs respective controls): ≥ 10 mg/kg per day; daily doses with statistically significant LH reductions ([3]; intact animals): ≥ 3 mg/kg; doses with significant FSH reductions ([3]; intact animals): ≥ 10 mg/kg/day; doses with significant testosterone reductions ([3]; intact animals): ≥ 3 mg/kg per day; suppression of serum testosterone ([3]; intact male rats, 3, 10 and 300 mg/kg, after 24 h, 72 h and 168 h (FIG. 9)): Rapid and potent suppression; agonist or antagonist activity (androgen receptor (AR)): did not display any agonist or antagonist activity; agonist or antagonist activity [4]: did not display any agonist or antagonist activity; ERβ activity in transient transfection assays (rat ER-β): agonist; antagonist effects on estradiol-stimulated transcriptional activation (rat ER-β; [17]): no antagonist effects were observed; induction of CYP1A2 (CYP1A2): does not induce; mutagenicity (Mutagenicity): not mutagenic; Ki [5]: 21.7 ± 1.7 nM; structural or numeric chromosomal aberrations [6]: did not induce structural or numeric chromosomal aberrations; ERα activity in transient transfection assays (rat ER-α): agonist; selectivity for ERα over ERβ in transcriptional activation (rat ER-α): 49.0 fold; antagonist effects on estradiol-stimulated transcriptional activation (rat ER-α; [17]): no antagonist effects were observed; relative selectivity in transactivation potency for ERα over ERβ (rat ER-α; normalized to estradiol values): 9.7 fold

Reference: US8546451B2 (priority 2005, dated 2013)
